Measurements published in article PMC9841524, “Structure-Based Rational Design of Small α-Helical Peptides with Broad-Spectrum Activity against Multidrug-Resistant Pathogens” (Journal of Medicinal Chemistry, 2022).
Converted amounts (≈) assume the structure as drawn. Where two headings read alike, the source gives them in different places. Where no end group is shown, it is not given here.

Assays:
[1] = tested on: A. baumannii (ATCC BAA1605); settings: Gram-negative, footnote e ciprofloxacin (MDR in Table S3); CLSI microdilution, CAMHB, 37 °C, 24 h; highest MIC of three independent experiments in triplicate
In short: (§1)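 In this CLSI-recommended assay, peptides were serially diluted twofold and combined with bacteria at 10^6 CFU/mL in cation-adjusted Mueller Hinton Broth.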

[2] = tested on: Bacillus cereus (ATCC 13061)
In short: as §1

[3] = tested on: Bacillus subtilis (ATCC 6633)
In short: as §1

[4] = tested on: E. faecalis (ATCC 29212)
In short: as §1

[5] = tested on: MRSA (ATCC BAA-1556); settings: for MIC, MRSA (ATCC BAA-1556), Control: MH media without salt ions or serum; for MIC, MRSA (ATCC BAA-1556), Control / MIC, MRSA (ATCC BAA-1556), MgCl2 / MIC, MRSA (ATCC BAA-1556), CaCl2 / MIC, MRSA (ATCC BAA-1556), KCl / MIC, MRSA (ATCC BAA-1556), NH4Cl / MIC, MRSA (ATCC BAA-1556), NaCl / MIC, MRSA (ATCC BAA-1556), FBS (25%): three independent experiments in triplicate; for MIC, MRSA (ATCC BAA-1556): broth microdilution (CLSI), CAMHB, 37 °C, 24 h; for MIC, MRSA (ATCC BAA-1556), MgCl2: media with 1 mM MgCl2; for MIC, MRSA (ATCC BAA-1556), CaCl2: media with 2 mM CaCl2; for MIC, MRSA (ATCC BAA-1556), KCl: media with 4.5 mM KCl; for MIC, MRSA (ATCC BAA-1556), NH4Cl: media with 6 mM NH4Cl; for MIC, MRSA (ATCC BAA-1556), NaCl: media with 150 mM NaCl; for MIC, MRSA (ATCC BAA-1556), FBS (25%): media with 25% fetal bovine serum
In short: as §1

[6] = tested on: P. aeruginosa (ATCC BAA-1744); settings: Gram-negative, resistant strain (marked a; imipenem resistant in Table S3); CLSI microdilution, CAMHB, 37 °C, 24 h; highest MIC of three independent experiments in triplicate
In short: as §1

[7] = tested on: K. pneumoniae (ATCCBAA-1705); test: MIC, standard microtiter dilution (CLSI); type: cell-based, Klebsiella pneumoniae; settings: broth microdilution (CLSI), CAMHB, 37 °C, 24 h
In short: as §1

[8] = tested on: E. faecalis (ATCC 51575); test: microbe, parasite or virus in culture; settings: Gram-positive, vancomycin-resistant; CLSI microdilution, CAMHB, 37 °C, 24 h; highest MIC of three independent experiments in triplicate
Experimental: (§2) Description of the characteristics and growth conditions of various bacterial strains used in the study are provided in the Supporting Information (Table S3). Antibacterial susceptibility testing was carried out using a standard microtiter dilution method recommended by the clinical and laboratory standard institute (CLSI) and measured as a minimum inhibitory concentration (MIC), the lowest peptide concentration that inhibited bacterial growth. Briefly, the overnight grown cultures in the recommended broth for each bacterial strain were diluted in cation-adjusted Mueller Hinton Broth (CAMHB) to give an inoculum of 10^6 colony-forming units (CFU)/mL. A 2-fold serially diluted test peptide solution (100 μL) was added to the microtiter plates. After adding bacterial suspension (100 μL), the plates were incubated at 37 °C for 24 h, and the MICs were determined. The same protocol was used to determine the MICs in the presence of salts and serum except using the media supplemented with various cationic salts (150 mM NaCl, 4.5 mM KCl, 6 mM NH4Cl, 1 mM MgCl2, and 2 mM CaCl2) or 25% FBS. The data was acquired from three independent assays performed in triplicate.
(§3) The bacterial strains employed in this study were obtained from the American Type Culture Collection (ATCC). Each strain was propagated as recommended by the ATCC, and each strain was stored as a frozen glycerol stock at -80°C. A bacterial colony was grown on the appropriate agar as indicated in Table S1 and was used to inoculate the appropriate broth. The culture was incubated at the appropriate conditions, as mentioned in Table S1. Following the incubation, the culture was diluted to an optical density 625 nm (OD625) of 0.1 in cation adjusted Mueller Hinton Broth (CAMHB), which is equivalent to 1 × 10^8 CFU/mL. The culture was further diluted to 1 × 10^6 CFU/mL, which was used to conduct the MIC determination assay. For the S. pneumoniae strains, CAMHB + 2.5% lysed horse blood was required for the assay. The strains with their […]
(§4) Table S3. Description of the characteristics and growth conditions of various bacterial strains

[9] = tested on: E. faecium (ATCC 27270); test: microbe, parasite or virus in culture
Experimental: as §2, §3, §4

[10] = tested on: E. faecium (ATCC 700221); test: microbe, parasite or virus in culture; settings: Gram-positive, vancomycin-resistant; CLSI microdilution, CAMHB, 37 °C, 24 h; highest MIC of three independent experiments in triplicate
Experimental: as §2, §3, §4

[11] = Relative hydrophobicity as RP-HPLC retention time; type: physicochemical; settings: chromatographic, Phenomenex Luna C18 4 μm 150 × 4.6 mm, linear AB gradient 1% acetonitrile/min, 0.3 mL/min, A water 0.1% TFA, B acetonitrile 0.1% TFA, 25 °C
Experimental: The purity analysis of the peptides was conducted on a RP-HPLC system (Shimadzu; LC-20ADXR) by using a Phenomenex (Luna) analytical C18 column (4 μm, 150 × 4.6 mm). The mass of the purified peptides was determined in the positive-ion mode using Q-TOF LC/MS (Compass Hystar 4.1, Bruker, USA). The purity (>95%) and mass data of all the synthesized peptides are provided in the Supporting Information.
8. Comparative Hydrophobicity analysis
The purity of all synthesized peptides was determined using reverse phase analytical HPLC
(Shimadzu; LC-20ADXR). Below mentioned are the conditions used to conduct the purity
Column: Phenomenex (Luna), 4 um, C18, 150 × 4.6 mm
Mobile Phase: Buffer A-Water containing 0.1% TFA,
Buffer B-Acetonitrile containing 0.1% TFA
Figure S52. HPLC chromatogram of 6a.
(1 picture or pasted object on this page, not shown here)

[12] = tested on: human lung fibroblast cells (MRC-5), human embryonic kidney cells (HEK-293), human hepatic cells (HepaRG), HeKa cells; test: 24 h cell viability assay (MTS); type: cell-based; settings: triplicate
Experimental: The in vitro cytotoxicity of 8a and 8b was evaluated using human lung fibroblast cells (MRC-5), human embryonic kidney cells (HEK-293), human hepatic cells (HepaRG), and human epidermal keratinocytes (HEKa). Cells were seeded at 10,000 per well in 0.1 mL of media in 96-well plates 24 h prior to the experiment. Lung and kidney cells were seeded in DMEM medium containing FBS (10%). Liver cells were seeded in William’s E medium with the GlutaMAX supplement. Epidermal keratinocytes were seeded in a Dermal Cell Basal medium supplemented with a keratinocyte growth kit. The peptides were added to each well in triplicates at a variable concentration of 10–250 μg/mL and incubated for 24h at 37 °C in a humidified atmosphere of 5% CO2. After the incubation period, the MTS solution (20 μL) was added to each well. Then, the cells were incubated for 2 h at 37 °C, and the cell viability was determined by measuring the absorbance at 490 nm using a SpectraMaxM2 microplate spectrophotometer. The percentage of cell survival was calculated as [(OD value of cells treated with the test mixture of compounds) – (OD value of culture medium)]/[(OD value of control cells) – (OD value of culture medium)] × 100%.

[13] = Gram-positive, CLSI microdilution, CAMHB, 37 °C, 24 h, highest MIC of three independent experiments in triplicate
[14] = 10^6 CFU/mL, highest MIC of three independent experiments in triplicate

Molecule | MIC, A. baumannii (ATCC BAA1605) [1] [µg/mL] | MIC, Bacillus cereus (ATCC 13061) ([2]; ATCC 13061, 24 h) [µg/mL] | MIC, Bacillus subtilis (ATCC 6633) ([3]; ATCC 6633, 24 h) [µg/mL] | MIC, E. faecalis (ATCC 29212) [4, 13] [µg/mL] | MIC, MRSA (ATCC BAA-1556), Control [5] [µg/mL] | MIC, MRSA (ATCC BAA-1556) [5, 14] [µg/mL] | MIC, MRSA (ATCC BAA-1556), MgCl2 [5] [µg/mL] | MIC, MRSA (ATCC BAA-1556), CaCl2 [5] [µg/mL] | MIC, MRSA (ATCC BAA-1556), KCl [5] [µg/mL] | MIC, MRSA (ATCC BAA-1556), NH4Cl [5] [µg/mL] | MIC, MRSA (ATCC BAA-1556), NaCl [5] [µg/mL] | MIC, MRSA (ATCC BAA-1556), FBS (25%) [5] [µg/mL] | MIC, MRSA (ATCC BAA-1556) ([5]; value in parentheses (μM)) [µM] | MIC, P. aeruginosa (ATCC BAA-1744) [6] [µg/mL] | MIC, K. pneumoniae (ATCCBAA-1705) [7, 14] [µg/mL] | MIC, K. pneumoniae (ATCCBAA-1705) ([7]; value in parentheses (μM)) [µM] | MIC, E. faecalis (ATCC 51575) [8] [µg/mL] | MIC, E. faecium (ATCC 27270) ([9]; ATCC 27270, 24 h) [µg/mL] | MIC, E. faecium (ATCC 700221) [10] [µg/mL] | tR, RP-HPLC retention time (measure of overall hydrophobicity) [11] [min] | other results
KWIKKWIKWWKK-NH2 [7b] | 12.5 | 6.2 | 3.1 | 12.5 | 6.2 | 6.2 | 6.2 | 12.5 | 12.5 | 12.5 | 25 | 25 | 3.53 | 12.5 | 25 | 14.23 | 6.2 | 6.2 | 6.2 | 32.23 | –
KWLKKWLKWWKK-NH2 [8b] | 3.1 | 3.1 | 3.1 | – | 3.1 | 3.1 | 6.2 | 6.2 | 6.2 | 6.2 | 12.5 | 12.5 | 1.76 | 6.2 | 6.2 | 3.53 | 6.2 | 3.1 | 3.1 | 33.41 | MIC, E. faecalis (ATCC 29212) ([4]; ATCC 29212, 24 h): 6.2 µg/mL; cell viability at 250 μg/mL, except for skin cells ([12]; MRC-5, HEK-293, HepaRG, MTS): above 60%; cell viability at 50 μg/mL ([12]; all tested cells (MRC-5, HEK-293, HepaRG, HeKa), MTS): above 75%
CCCCCCCCCC(=O)N[C@@H](Cc1c[nH]c2ccccc12)C(=O)N[C@H](CC(N)=O)C(=O)N[C@@H](CC(=O)O)C(=O)N[C@@H]1C(=O)NCC(=O)N[C@@H](CCCN)C(=O)N[C@@H](CC(=O)O)C(=O)N[C@H](C)C(=O)N[C@@H](CC(=O)O)C(=O)NCC(=O)N[C@H](CO)C(=O)N[C@@H]([C@H](C)CC(=O)O)C(=O)N[C@@H](CC(=O)c2ccccc2N)C(=O)O[C@@H]1C [daptomycin, reference compound] | – | – | – | 6.2 | 1.5 | 1.5 | 3.1 (≈ 1.91 µM) | 3.1 (≈ 1.91 µM) | 1.5 (≈ 0.926 µM) | 1.5 (≈ 0.926 µM) | 1.5 (≈ 0.926 µM) | 3.1 (≈ 1.91 µM) | 0.86 | – | – | – | 12.5 | – | 6.2 | – | MIC, Bacillus cereus (ATCC 13061) [2, 13]: 1.5 µg/mL; MIC, Bacillus subtilis (ATCC 6633) [3, 13]: 0.7 µg/mL; MIC, E. faecium (ATCC 27270) [9, 13]: 1.5 µg/mL; cytotoxicity against kidney and liver cells ([12]; HEK293 and HPRGC10 (HepaRG), up to 250 μg/mL): negligible cytotoxicity
RWIRRWIRWWRR-NH2 [7a] | 12.5 | – | 6.2 | 12.5 | 6.2 | 6.2 | 6.2 | 6.2 | 12.5 | 6.2 | 12.5 | 25 | 3.22 | 12.5 | 12.5 | 6.49 | 12.5 | 6.2 | 6.2 | 33.93 | MIC, Bacillus cereus (ATCC 13061) [2, 13]: 12.5 µg/mL
